From paper PMC10145393, “Virtual Screening Strategy to Identify Retinoic Acid-Related Orphan Receptor γt Modulators” (Molecules, 2023)
Like-named read-outs stand apart in the source and are kept apart here.

What was measured:
[1] = Solubility observed in experimental testing
[2] = parameters: method as in vendor (SPECS); details: reported by the vendor ref vendor (SPECS); cited from earlier work
[3] = molecular target: T1, human RORγ hybrids of both isoforms 1 and 2 (RORγt) (Homo sapiens, UniProt P51449); experiment: Human RAR-related Orphan Receptor Gamma Reporter Assay System (Indigo Biosciences); format: cell-based
T1 sequence (P51449 259-518): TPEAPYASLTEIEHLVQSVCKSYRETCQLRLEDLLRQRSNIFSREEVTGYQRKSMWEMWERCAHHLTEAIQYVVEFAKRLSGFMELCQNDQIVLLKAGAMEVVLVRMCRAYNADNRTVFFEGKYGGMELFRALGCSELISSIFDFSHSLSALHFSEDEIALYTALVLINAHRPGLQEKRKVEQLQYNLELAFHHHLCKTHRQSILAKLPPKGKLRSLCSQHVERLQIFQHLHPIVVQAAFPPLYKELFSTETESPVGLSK
Description: The activity of the 28 selected molecules was determined at 5 μM concentration using the Human RAR-related Orphan Receptor Gamma Reporter Assay System in a 96-well format (Indigo Biosciences, State College, PA, USA). The assay utilizes human reporter cells designed to express high levels of human RORγ hybrids of both isoforms 1 and 2 and is capable of quantifying inverse agonism and agonism. […] Concentrations of the tested molecules varied from 10 µM to 8 nM, using 1/3-fold decrements within the range of 6 µM to 8 nM. Otherwise, the kit protocol was followed, and the analysis was done similarly as in a prior study.

[4] = RORγ reporter assay, concentrations 10 µM to 8 nM, read-out: IC50

Row | SMILES | IC50 [3, 4] [nM] | also measured
1 | COc1cc(C(=O)N2CCN(CCN3C(=O)c4cccc5cccc(c45)C3=O)CC2)cc(OC)c1OC [Compound 2] |  | solubility [1]: non-soluble; logP [2]: 1.69
2 | Clc1ccccc1COc1cccc(/C=N/Nc2nc(N3CCOCC3)nc(N3CCOCC3)n2)c1 [Compound 9] | 1700 | 
3 | COc1cc(C2C(C(=O)OC3CCCCC3)=C(C)NC3=C2C(=O)CC(c2ccc(OC)c(OC)c2)C3)ccc1O (stereo not shown) [Compound 13] | 2600 | 
4 | COc1ccc(C2CC(=O)C3=C(C2)NC(C)=C(C(=O)OC2CCCCC2)C3c2cccc(O)c2)cc1OC (stereo not shown) [Compound 14] | 2300 | 
5 | O=C(COC(=O)c1ccc(N2C(=O)C3C4c5ccccc5C(c5ccccc54)C3C2=O)cc1)c1cccc([N+](=O)[O-])c1 (stereo not shown) [Compound 17] |  | solubility [1]: non-soluble; logP [2]: 2.93
6 | COc1cc(C2C(C#N)=C(N)N(Nc3ccccc3)C3=C2C(=O)CC(C)(C)C3)ccc1OCc1cccc(F)c1 (stereo not shown) [Compound 25] |  | IC50 [3]: 2400 nM
7 | COc1cc(C2C(C#N)=C(N)N(Nc3ccccc3)C3=C2C(=O)CC(C)(C)C3)ccc1OCc1ccccc1 (stereo not shown) [Compound 26] |  | IC50 [3]: 3200 nM

Further lines, with some results ahead:

Row | IC50 [3, 4] [nM] | SMILES | also measured
8 | 9700 | COc1ccc(-c2cc(C(F)(F)F)n3ncc(C(=O)N4CCN(C(c5ccccc5)c5ccccc5)CC4)c3n2)cc1 [Compound 10] | 
9 | 7300 | O=C(O)c1ccc(CN2C(=O)/C(=C/c3cn(Cc4ccc([N+](=O)[O-])cc4)c4ccccc34)S/C2=N/c2ccccc2)cc1 [Compound 15] | 
10 | 1100 | COc1ccc(-c2nc3ccccc3c(C(=O)Nc3ccc(S(=O)(=O)Nc4cc(C)on4)cc3)c2C)cc1 [Compound 19] | 
11 | 10700 | COc1ccc(Cn2c(-c3ccc(S(=O)(=O)N4CCOCC4)cc3)cs/c2=N\c2ccccc2OC)cc1 [Compound 21] | 
